Reference: patent US20080269188A1, “Oatp-C Gene C463a Polymorphism Underlies Variable Response to Statin Therapy” (INSERM, priority 2005, published 2008)
Marks after values point to notes of the source that are not given here.

Columns and labels:
[1] = taken from Buse J., Clinical Diabetes 2003; cited from earlier work
[2] = ALERT trial (renal transplantation): lipid parameters after 6 weeks of fluvastatin by OATP-C Pro155Thr genotype; format: in vivo, human; set-up: TC_Visit 2 / TC_Diff / TG_Visit 2 / TG_Diff / HDL_Visit 2 / HDL_Diff / LDL_Visit 2 / LDL_Diff: unit not given here; settings: LSMEAN; for HDL_% change / LDL_% change / TC_% change / TG_% change: 6 weeks; for HDL_Visit 2 / LDL_Visit 2 / TC_Visit 2 / TG_Visit 2: visit 2 (6 weeks of treatment), 40 mg daily; for HDL_Diff / LDL_Diff / TC_Diff / TG_Diff: week 6 minus visit zero
Experimental: Given the success of statins, and fluvastatin in particular, in lowering lipid levels and reducing cardiovascular disease in the general population, the Assessment of LEscol (Fluvastatin) in Renal Transplantation (ALERT) clinical trial was performed (Holdaas et al., 2003). This multicenter, randomized, double-blind placebo-controlled study followed […] renal transplant patients for 5-6 years. Patients were assigned to a placebo or fluvastatin (40 mg daily for two years, and 80 mg daily for the remainder of the study) group, and monitored in laboratory blood analysis every six months and annual electrocardiography.
The Alert trial was conducted in centres in the Scandinavian countries, UK, Germany, Belgium, Switzerland and Canada, with only minimal number of non-Caucasian patients. The demographic and baseline LDL-C characteristics are similar between the fluvastatin treatment and the placebo groups, as illustrated in Table 5.
Blood samples from each consenting patient were collected at the individual trial sites. The genomic DNA of each patient was extracted from the blood using the […]™ DNA Isolation Kit (D-50K) and then genotyping was performed. Ultimately, 1375 ALERT samples were genotyped: 693 from the Fluvastatin group (of 1050 total patients) and 682 from the placebo group (of 1052 total patients).
The primary efficacy variables tested were: LDL cholesterol at visit 2 (6 weeks of treatment) and Change in LDL cholesterol. The change in LDL cholesterol was calculated as the difference between the week 6 value and the visit zero value, for patients for whom both numbers were available. Additional efficacy variables tested in the full set of genotypes were: • HDL cholesterol at visit 2 (6 Weeks of treatment) • Change in HDL cholesterol • Total cholesterol at visit 2 (6 weeks of treatment) • Change in total cholesterol • Triglycerides at visit 2 (6 weeks of treatment) • Change in triglycerides.
Association tests used categorical genotypes as the independent variable, with no assumption about dominance, and the various efficacy variables as dependent variables. Tests of continuous dependent variables used an ANCOVA analysis. No adjustment was made for multiple testing effect.
The relevant association test for each phenotype was first performed in the Fluvastatin treated patient set. SNP-phenotype associations with a threshold of p<0.05 were then tested separately in the placebo set to determine Fluvastatin-related pharmacogenetic effect.

[3] = FAME study: plasma lipid response to Fluvastatin XL 80 mg in elderly patients with primary hypercholesterolemia, overall and by OATP-C C463A (Pro155Thr) genotype; format: in vivo, human
Experimental: The characteristics of the study subjects have been previously reported.^26 Patients were enrolled in a large scale, randomized, double-blind, placebo-controlled multicenter study conducted in France, Italy, Spain, Belgium and Israel. Initially, the aim of this study was to investigate the efficacy and safety of extended-release (XL) Fluvastatin 80 mg once daily for up to one year in elderly patients with primary hypercholesterolemia. The study was approved by the relevant Ethic Committees, and informed consent Was given by all subjects before entering the study. Men or women, aged 70-85 years, with primary hypercholesterolemia (total cholesterol ≧251 mg/dL, triglycerides ≦407 mg/dL and LDL cholesterol ≧159 mg/dL after dietary intervention) were eligible for inclusion. […] OATP-C genotypes were determined in 420 subjects from the Fluvastatin arm of the study.
For each subject, plasma lipid response was calculated based on values obtained at baseline (week—2) and 2 months after treatment. Laboratory methods for lipid and lipoprotein measurements are described elsewhere 26; all parameters were measured at a central laboratory. […] Endpoint fluorescence (FAM™, VIC® or both), corresponding to cleavage of the allele-specific probe (allelic discrimination) was measured using an ABI PRISM 7000 Sequence Detection System (Applied Biosystems, Foster City, Calif.). […]

For `CC[C@H](C)C(=O)O[C@H]1C[C@@H](C)C=C2C=C[C@H](C)[C@H](CC[C@@H]3C[C@@H](O)CC(=O)O3)[C@H]21` [Lovastatin, lovastatin], the Equipotent dose [1] is given as 60* mg.

With `CC(C)n1c(/C=C/C(O)CC(O)CC(=O)O)c(-c2ccc(F)cc2)c2ccccc21` (stereo not shown) [Fluvastatin, fluvastatin] the HDL_% change ([2]; Pro155Thr genotype AA, n=16) was 18%, the LDL_% change ([2]; Pro155Thr genotype AA, n=16) was −34% and the TC_% change ([2]; Pro155Thr genotype AA, n=16) was −20%. The TG_% change ([2]; Pro155Thr genotype AA, n=16) was 8%, the “HDL_Visit 2” value ([2]; Pro155Thr genotype AA, n=16) was 1.58 and the “LDL_Visit 2” value ([2]; Pro155Thr genotype AA, n=16) was 2.68. For the same compound, the “TC_Visit 2” value ([2]; Pro155Thr genotype AA, n=16) was 5.17, the “TG_Visit 2” value ([2]; Pro155Thr genotype AA, n=16) was 2.12 and the HDL_Diff ([2]; Pro155Thr genotype AA, n=16) was 0.23. It also gave an LDL_Diff ([2]; Pro155Thr genotype AA, n=16) of −1.45, a TC_Diff ([2]; Pro155Thr genotype AA, n=16) of −1.27 and a TG_Diff ([2]; Pro155Thr genotype AA, n=16) of −0.037. For the same compound, the HDL_% change ([2]; Pro155Thr genotype AC, n=167) was 8%, the LDL_% change ([2]; Pro155Thr genotype AC, n=167) was −23% and the TC_% change ([2]; Pro155Thr genotype AC, n=167) was −16%. The TG_% change ([2]; Pro155Thr genotype AC, n=167) was −3%, the “HDL_Visit 2” value ([2]; Pro155Thr genotype AC, n=167) was 1.4 and the “LDL_Visit 2” value ([2]; Pro155Thr genotype AC, n=167) was 3.12. For the same compound, the “TC_Visit 2” value ([2]; Pro155Thr genotype AC, n=167) was 5.39, the “TG_Visit 2” value ([2]; Pro155Thr genotype AC, n=167) was 1.98 and the HDL_Diff ([2]; Pro155Thr genotype AC, n=167) was 0.05. For the same compound, the LDL_Diff ([2]; Pro155Thr genotype AC, n=167) was −1.02, the TC_Diff ([2]; Pro155Thr genotype AC, n=167) was −1.05 and the TG_Diff ([2]; Pro155Thr genotype AC, n=167) was −0.181. The HDL_% change ([2]; Pro155Thr genotype CC, n=468) was 9%, the LDL_% change ([2]; Pro155Thr genotype CC, n=468) was −28% and the TC_% change ([2]; Pro155Thr genotype CC, n=468) was −18%. For the same compound, the TG_% change ([2]; Pro155Thr genotype CC, n=468) was −5%, the “HDL_Visit 2” value ([2]; Pro155Thr genotype CC, n=468) was 1.43 and the “LDL_Visit 2” value ([2]; Pro155Thr genotype CC, n=468) was 2.91. For the same compound, the “TC_Visit 2” value ([2]; Pro155Thr genotype CC, n=468) was 5.21, the HDL_Diff ([2]; Pro155Thr genotype CC, n=468) was 0.08 and the LDL_Diff ([2]; Pro155Thr genotype CC, n=468) was −1.22. For the same compound, the TC_Diff ([2]; Pro155Thr genotype CC, n=468) was −1.23, the TG_Diff ([2]; Pro155Thr genotype CC, n=468) was −0.226 and the “LDL-C, % Change” value ([3]; C463A genotype AA (Thr/Thr), n=15, baseline vs 2 months, mean ± SD) was −41%. For the same compound, the “absolute gain in LDL-C reduction” value ([3]; homozygous Thr/Thr vs homozygous wild-type Pro/Pro) was 10% and the Equipotent dose [1] was 80* mg.

For `CC(C)c1c(C(=O)Nc2ccccc2)c(-c2ccccc2)c(-c2ccc(F)cc2)n1CC[C@@H](O)C[C@@H](O)CC(=O)O` [Atorvastatin, atorvastatin], the Equipotent dose [1] is listed as 10 mg.
